# Laboratory results as given in patent US5686485A, “Physiologically active EI-1941 compounds” (Kyowa Hakko Kogyo Co., Ltd., priority 1995, dated 1997).
# pIC50: −log10 of the molar value.
# What was measured:
# [1] = tested on: production of IL-1β by human monocyte-derived THP-1 cells; assay: Inhibitory activity against the production of IL-1β by human monocyte-derived THP-1 cells (LPS-stimulated, ELISA); format: cell-based; conditions: THP-1 cells differentiated with PMA 30 nM, 65 h, LPS 25 μg/ml, 4 hours, serum-free RPMI1640, test compound 0.05-50 μg/ml, read-out: IC50 (50% inhibitory concentration), IL-1 production inhibition
# Method: The inhibitory activity of EI-1941 compounds against the production of IL-1β by human monocyte-derived THP-1 cells (ATCC No. TIB 202) was examined in the following manner. The amount of IL-1β was determined by the ELISA method.
# THP-1 cells were suspended in RPMI1640 medium (Nissui Pharmaceutical Co., Ltd.) containing 10% inactivated fetal calf serum at a concentration of 1×10^5 cells/ml. The cell suspension was put into wells of a 24-well plate in an amount of 1 ml/well. Phorbol 12-myristate 13-acetate (PMA, final concentration: 30 nM) was added to the wells, followed by incubation in a 5% CO2 -incubator at 37° C. for 65 hours to differentiate the cells into macrophage.
# Then, the plate was gently washed with serum-free RPMI1640 medium to remove the cells which were not adhered to the wells, and the residue was cultured for 4 hours in serum-free RPMI1640 medium (1 ml/well) containing lipopolysaccharide (LPS, final concentration: 25 μg/ml) and a test compound (final concentration: 0.05-50 μg/ml).
# After the completion of culturing, the amount of IL-1β released into the culture supernatant was determined by using an IL-1β determination kit (Amersham Corp.).
# The IL-1 production inhibition rate was calculated according to the following equation to obtain IC50 (50% inhibitory concentration).
# IL-1 production inhibition rate (%)=(A-B)/(A-C)×100
# A: Amount of IL-1 produced when only LPS is added […]
# Solubility = format: physicochemical; conditions: in methanol and acetonitrile
smiles,measurement,setting,value
CCCC1CC2=C(C(O)O1)C(O)C1OC1C2=O (centres unmarked) [EI-1941-1],pIC50,[1],6.00
same,Solubility,Solubility,Readily soluble in methanol and acetonitrile
CCCC1CC2=C(C(=O)O1)C(O)C1OC1C2=O (centres unmarked) [EI-1941-2],pIC50,[1],5.66
same,Solubility,Solubility,Readily soluble in methanol and acetonitrile
CCCC1CC2=C(C(=O)O1)C(O)C(O)CC2=O (centres unmarked) [EI-1941-3],Solubility,Solubility,Readily soluble in methanol and acetonitrile
